The results in this text go back to publication PMC9501899 (Journal of the American Chemical Society, 2022).

The target of data set [1] is T1, VHL-NanoLuc (Homo sapiens, UniProt P40337).
T1 construct: host or cells: HEK293
Kind of data set: NanoBRET VHL target engagement assay in HEK293 cells. It is filed as binding. How it is done: Figure 9 Binding affinities to VHL and LRRK2. (A) Binding affinity of the tested compounds to VHL using the FP assay. […] NanoBRET target engagement assays of tested compounds to VHL (B) and LRRK2 (C) in permeabilized and live-cell modes. The indicated compounds were titrated into HEK293 cells transfected with VHL-NanoLuc (B) or LRRK2-NanoLuc fusion (C) in the presence of VHL tracer (B) or LRRK2 tracer (C). 0.25 and 0.5 μM VHL tracers were used for the permeabilized and live mode VHL engagement assays separately. 0.125 and 0.5 μM of LRRK2 tracer were used for the permeabilized and live mode LRRK2 engagement assays separately. […]
For VHL and LRRK2 target engagement experiments in live and permeabilized cells, the HEK293 cells were transfected with the VHL-NanoLuc fusion vector (Promega, N275A) or LRRK2-NanoLuc fusion vector (Promega, NV3401) following Promega’s protocol and seeded into a white 384-well plate (Corning3570) at a density of 6000 cells/well. […] The filtered luminescence was measured within 10 min following the addition of the substrate on a GloMax Discover microplate reader (Promega) or a PHERAstar (BMG LABTECH) plate reader equipped with a 450 nm bandpass filter (donor) and a 600 nm long-pass filter (acceptor). […]

The target of data set [2] is T2, G2019S LRRK2 (Mus musculus, UniProt Q5S006, G2019S).
T2 construct: endogenous in cells; host or cells: G2019S LRRK2 MEFs
T2 sequence (Q5S006 whole entry G2019S): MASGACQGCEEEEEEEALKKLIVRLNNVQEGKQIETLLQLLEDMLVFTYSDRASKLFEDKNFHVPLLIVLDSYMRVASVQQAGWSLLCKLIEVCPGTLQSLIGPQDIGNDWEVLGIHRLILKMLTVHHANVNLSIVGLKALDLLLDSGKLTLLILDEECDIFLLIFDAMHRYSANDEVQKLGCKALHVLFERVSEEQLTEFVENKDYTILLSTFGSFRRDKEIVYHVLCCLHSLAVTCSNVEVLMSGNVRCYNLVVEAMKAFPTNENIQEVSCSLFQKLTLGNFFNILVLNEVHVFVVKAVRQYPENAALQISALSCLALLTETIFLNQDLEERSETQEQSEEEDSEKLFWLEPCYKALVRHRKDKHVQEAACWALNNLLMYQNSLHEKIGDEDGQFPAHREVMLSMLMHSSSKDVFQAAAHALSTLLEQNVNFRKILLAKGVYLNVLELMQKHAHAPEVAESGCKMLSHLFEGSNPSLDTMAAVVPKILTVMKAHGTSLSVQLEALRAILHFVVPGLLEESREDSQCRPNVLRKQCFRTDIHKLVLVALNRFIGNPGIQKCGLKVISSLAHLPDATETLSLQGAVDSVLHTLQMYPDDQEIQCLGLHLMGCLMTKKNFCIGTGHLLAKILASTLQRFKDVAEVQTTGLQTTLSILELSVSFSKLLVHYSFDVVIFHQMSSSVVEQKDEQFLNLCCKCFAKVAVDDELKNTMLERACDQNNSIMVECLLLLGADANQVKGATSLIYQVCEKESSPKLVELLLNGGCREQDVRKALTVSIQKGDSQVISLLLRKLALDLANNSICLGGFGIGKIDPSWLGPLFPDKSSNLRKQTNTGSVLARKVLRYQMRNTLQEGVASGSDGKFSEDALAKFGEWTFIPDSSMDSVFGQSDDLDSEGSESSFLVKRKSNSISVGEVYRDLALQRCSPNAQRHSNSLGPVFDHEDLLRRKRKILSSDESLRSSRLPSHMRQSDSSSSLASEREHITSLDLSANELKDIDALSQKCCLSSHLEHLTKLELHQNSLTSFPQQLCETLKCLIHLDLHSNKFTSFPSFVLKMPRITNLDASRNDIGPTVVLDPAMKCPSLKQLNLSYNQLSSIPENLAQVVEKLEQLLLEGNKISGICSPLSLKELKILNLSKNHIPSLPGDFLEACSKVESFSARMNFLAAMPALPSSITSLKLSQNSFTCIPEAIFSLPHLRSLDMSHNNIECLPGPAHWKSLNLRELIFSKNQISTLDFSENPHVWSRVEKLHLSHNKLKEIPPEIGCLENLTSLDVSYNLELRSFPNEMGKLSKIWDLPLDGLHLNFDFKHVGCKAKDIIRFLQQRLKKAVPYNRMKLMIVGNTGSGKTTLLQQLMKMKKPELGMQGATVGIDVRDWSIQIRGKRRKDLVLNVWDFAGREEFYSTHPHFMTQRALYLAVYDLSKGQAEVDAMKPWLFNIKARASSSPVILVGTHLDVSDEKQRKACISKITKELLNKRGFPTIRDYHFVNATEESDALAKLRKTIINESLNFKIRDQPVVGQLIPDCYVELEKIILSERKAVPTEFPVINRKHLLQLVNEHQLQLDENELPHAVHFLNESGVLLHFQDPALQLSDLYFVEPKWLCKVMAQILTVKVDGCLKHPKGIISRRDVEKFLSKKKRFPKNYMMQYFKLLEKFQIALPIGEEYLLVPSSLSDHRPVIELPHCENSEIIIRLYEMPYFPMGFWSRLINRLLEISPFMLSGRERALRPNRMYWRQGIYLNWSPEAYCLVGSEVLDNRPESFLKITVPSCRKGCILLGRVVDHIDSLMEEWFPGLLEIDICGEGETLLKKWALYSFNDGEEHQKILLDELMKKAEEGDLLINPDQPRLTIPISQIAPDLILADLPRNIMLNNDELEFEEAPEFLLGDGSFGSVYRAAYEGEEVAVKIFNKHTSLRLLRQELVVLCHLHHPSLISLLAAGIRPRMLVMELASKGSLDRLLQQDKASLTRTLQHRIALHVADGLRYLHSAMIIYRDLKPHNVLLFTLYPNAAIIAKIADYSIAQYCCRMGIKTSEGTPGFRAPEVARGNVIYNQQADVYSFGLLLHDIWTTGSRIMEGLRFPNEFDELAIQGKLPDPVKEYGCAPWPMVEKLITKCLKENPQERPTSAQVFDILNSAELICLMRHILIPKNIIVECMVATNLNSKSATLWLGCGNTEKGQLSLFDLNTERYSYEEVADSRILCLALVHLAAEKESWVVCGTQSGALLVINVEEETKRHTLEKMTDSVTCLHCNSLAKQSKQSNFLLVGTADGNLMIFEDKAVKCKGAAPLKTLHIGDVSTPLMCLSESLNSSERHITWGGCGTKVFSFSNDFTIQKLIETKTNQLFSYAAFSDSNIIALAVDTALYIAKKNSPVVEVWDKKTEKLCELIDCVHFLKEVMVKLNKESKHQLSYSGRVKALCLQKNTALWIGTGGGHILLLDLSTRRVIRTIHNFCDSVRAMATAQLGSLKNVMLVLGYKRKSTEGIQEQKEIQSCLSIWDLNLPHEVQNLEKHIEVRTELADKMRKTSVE
Kind of data set: LRRK2 degradation in G2019S LRRK2 MEFs by Western blotting. It is filed as cell-based. As to conditions: for Dmax: dose-dependent degradation. As for the experimental part:
(§1) These PROTACs were then biologically evaluated in mouse embryonic fibroblasts (MEFs) by Western blotting. Briefly, MEFs were treated with compounds at 33 nM and 1 μM for 4 h (Figure 2) and 24 h (Figure S2) separately, and the intracellular level of LRRK2, phosphorylated LRRK2 at Ser935, and phosphorylated Rab10 (pRab10) at Thr73 was determined. Rab10[5],[49] is one of the bona fide substrates of LRRK2, whose phosphorylation status is directly affected by the LRRK2 kinase activity and protein level. Phosphorylation of LRRK2 at Ser935 is a well-studied biomarker site used to assess the efficacy of type 1 LRRK2 inhibitors.[30]
(§2) Primary MEFs were generated as described in a previous study.[80] Briefly, the uterine horn was collected from adult female mice at day E12.5 and transferred to a 10 cm tissue culture dish containing cold PBS. Two forceps were used to tear the yolk sacs to isolate each embryo. Forceps were cleaned thoroughly with 70% ethanol between each embryo isolation. The embryos were culled, and a tissue piece was collected in a polymerase chain reaction (PCR) tube for genotyping. The red tissue of the embryo was removed, and the remainder was minced with a scalpel blade and incubated with a 7.5 mL trypsin–ethylenediaminetetraacetic acid (EDTA) solution for 10 min in a 37 °C, 5% CO2 tissue culture incubator. The dish was removed from the incubator and checked under a light microscope for single cells. Complete media (7.5 mL) was added to the trypsinized cells, and the cell suspension was transferred to a 15 mL Falcon tube and centrifuged at 1200 rpm for 5 min at room temperature. The trypsin was aspirated, the cell pellet was resuspended in a 5 mL fresh complete media, and the cell suspension was plated in a 60 mm tissue culture dish and incubated in a 37 °C, 5% CO2 tissue culture incubator. The MEFs at this stage were considered as passage 0 and were passaged and expanded for experimental use once the genotype was confirmed by allelic sequencing and immunoblotting. MEFs were cultured in Dulbecco’s modified Eagle’s medium (DMEM) containing 10% (v/v) fetal bovine serum (FBS), 2 mM L-glutamine, 100 U/mL penicillin, and 100 μg/mL streptomycin supplemented with 1× nonessential amino acids and 1 mM sodium pyruvate.
(§3) Culturing and passaging of adherent cell lines were carried out using an aseptic technique in CL1 or CL2 (for PBMC isolation) biological safety cabinets. All cells were incubated in a 37 °C incubator with 5% CO2. Cell lines were regularly tested for mycoplasma contamination. For Western blot assay, the cells were seeded in six-well plates. For immunoprecipitation of LRRK2, SH-SY5Y cells (cultured in DMEM-F12, supplemented with 15% (v/v) FBS, 100 U/mL penicillin and 100 μg/mL streptomycin, 1× nonessential amino acids, and 1 mM sodium pyruvate) were seeded in a 10 cm dish. All cells were treated with the indicated compounds such that the final concentration of DMSO was 0.1%. Following the treatment of cells with compounds at indicated concentrations and time periods, the media was removed and the cells were washed with PBS and lysed in a 100 μL ice-cold complete lysis buffer containing 50 mM tris–HCl pH 7.4, 1 mM EGTA, 10 mM 2-glycerophosphate, 50 mM sodium fluoride, 5 mM sodium pyrophosphate, 270 mM sucrose, supplemented with 1 μg/mL microcystin-LR, 1 mM sodium orthovanadate, complete EDTA-free protease inhibitor cocktail (Roche), and 1% (v/v) Triton X-100. The cells were immediately placed on ice and were scraped and collected into 1.5 mL Eppendorf tubes. Cell lysates were incubated on ice for 10 min prior to centrifugation at 15 000g at 4 °C for 15 min.

Data set [3] relates to Rab10-pThr73. The data set is described as follows: Rab10 dephosphorylation in WT MEFs by Western blotting. Type of data set: cell-based, mouse. As for the experimental part: as §1, §2, §3
The target in data set [4] is T3, LRRK2-NanoLuc (Homo sapiens, UniProt Q5S007).
T3 construct: host or cells: HEK293
T3 sequence (Q5S007 whole entry): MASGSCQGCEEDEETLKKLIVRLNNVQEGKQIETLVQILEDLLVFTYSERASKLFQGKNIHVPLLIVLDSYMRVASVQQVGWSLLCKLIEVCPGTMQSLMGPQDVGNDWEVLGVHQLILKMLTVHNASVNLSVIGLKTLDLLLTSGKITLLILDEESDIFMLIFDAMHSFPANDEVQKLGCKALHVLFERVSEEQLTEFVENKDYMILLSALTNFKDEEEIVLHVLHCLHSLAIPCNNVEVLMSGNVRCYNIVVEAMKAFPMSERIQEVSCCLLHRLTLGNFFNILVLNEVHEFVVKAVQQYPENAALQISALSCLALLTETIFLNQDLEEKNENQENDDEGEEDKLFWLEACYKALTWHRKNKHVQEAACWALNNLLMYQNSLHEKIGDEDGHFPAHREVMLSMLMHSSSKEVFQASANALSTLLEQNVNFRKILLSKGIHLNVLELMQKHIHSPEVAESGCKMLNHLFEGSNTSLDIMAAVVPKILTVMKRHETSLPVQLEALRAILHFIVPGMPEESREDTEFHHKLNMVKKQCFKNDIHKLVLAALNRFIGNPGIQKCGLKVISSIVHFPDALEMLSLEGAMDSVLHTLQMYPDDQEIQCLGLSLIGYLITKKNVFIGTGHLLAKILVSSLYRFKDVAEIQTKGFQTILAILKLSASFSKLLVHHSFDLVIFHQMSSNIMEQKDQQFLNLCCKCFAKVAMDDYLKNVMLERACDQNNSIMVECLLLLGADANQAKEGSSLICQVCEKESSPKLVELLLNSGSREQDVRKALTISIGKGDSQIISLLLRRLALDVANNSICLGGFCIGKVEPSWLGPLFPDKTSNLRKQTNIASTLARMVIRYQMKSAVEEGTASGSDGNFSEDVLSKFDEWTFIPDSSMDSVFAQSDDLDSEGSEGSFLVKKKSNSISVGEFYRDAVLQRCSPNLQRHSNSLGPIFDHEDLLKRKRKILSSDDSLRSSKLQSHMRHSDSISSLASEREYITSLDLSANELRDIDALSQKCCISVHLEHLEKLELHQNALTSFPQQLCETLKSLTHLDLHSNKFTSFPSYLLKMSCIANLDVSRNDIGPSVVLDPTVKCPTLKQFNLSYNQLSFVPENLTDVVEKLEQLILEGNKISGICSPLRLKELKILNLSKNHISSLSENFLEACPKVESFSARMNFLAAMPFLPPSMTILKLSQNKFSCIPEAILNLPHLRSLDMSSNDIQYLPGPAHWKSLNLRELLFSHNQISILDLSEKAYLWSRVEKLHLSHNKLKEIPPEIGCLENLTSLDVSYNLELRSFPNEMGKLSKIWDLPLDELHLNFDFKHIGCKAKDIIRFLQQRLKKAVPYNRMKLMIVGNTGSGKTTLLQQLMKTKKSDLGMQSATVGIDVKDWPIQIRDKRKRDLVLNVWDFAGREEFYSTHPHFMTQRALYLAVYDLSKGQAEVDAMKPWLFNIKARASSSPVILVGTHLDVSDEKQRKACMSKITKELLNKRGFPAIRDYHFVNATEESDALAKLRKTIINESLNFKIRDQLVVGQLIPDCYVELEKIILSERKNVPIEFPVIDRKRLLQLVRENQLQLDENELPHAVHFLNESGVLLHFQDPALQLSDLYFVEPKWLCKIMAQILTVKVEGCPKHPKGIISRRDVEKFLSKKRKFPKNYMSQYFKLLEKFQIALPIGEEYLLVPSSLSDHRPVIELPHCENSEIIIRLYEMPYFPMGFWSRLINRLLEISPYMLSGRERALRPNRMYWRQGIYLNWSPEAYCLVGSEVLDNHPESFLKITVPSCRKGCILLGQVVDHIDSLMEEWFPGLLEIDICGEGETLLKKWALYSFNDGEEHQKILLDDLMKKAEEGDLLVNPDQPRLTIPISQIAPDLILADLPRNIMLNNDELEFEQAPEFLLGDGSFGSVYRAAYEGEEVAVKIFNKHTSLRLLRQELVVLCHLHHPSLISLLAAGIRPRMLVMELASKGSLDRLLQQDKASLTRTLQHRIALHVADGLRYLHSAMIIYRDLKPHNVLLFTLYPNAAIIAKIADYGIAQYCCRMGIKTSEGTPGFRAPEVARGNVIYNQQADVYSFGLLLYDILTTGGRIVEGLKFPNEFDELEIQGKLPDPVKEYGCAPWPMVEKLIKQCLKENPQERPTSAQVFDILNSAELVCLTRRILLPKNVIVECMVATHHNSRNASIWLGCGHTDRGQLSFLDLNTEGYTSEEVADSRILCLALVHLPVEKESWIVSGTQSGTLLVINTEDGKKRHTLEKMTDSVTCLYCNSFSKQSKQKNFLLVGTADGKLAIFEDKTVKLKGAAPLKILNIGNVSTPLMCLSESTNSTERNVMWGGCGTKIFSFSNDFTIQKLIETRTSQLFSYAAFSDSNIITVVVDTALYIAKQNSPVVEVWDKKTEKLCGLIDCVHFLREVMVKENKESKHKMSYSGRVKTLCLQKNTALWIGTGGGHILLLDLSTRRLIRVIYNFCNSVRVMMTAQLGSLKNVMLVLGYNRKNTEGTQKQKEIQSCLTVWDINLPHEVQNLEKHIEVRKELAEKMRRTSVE
Kind of data set: NanoBRET LRRK2 target engagement assay in HEK293 cells. Type of data set: binding. The conditions noted are these: for pIC50: permeabilized HEK293 cells. As for the experimental part:
Figure 9 Binding affinities to VHL and LRRK2. (A) Binding affinity of the tested compounds to VHL using the FP assay. […] NanoBRET target engagement assays of tested compounds to VHL (B) and LRRK2 (C) in permeabilized and live-cell modes. The indicated compounds were titrated into HEK293 cells transfected with VHL-NanoLuc (B) or LRRK2-NanoLuc fusion (C) in the presence of VHL tracer (B) or LRRK2 tracer (C). 0.25 and 0.5 μM VHL tracers were used for the permeabilized and live mode VHL engagement assays separately. 0.125 and 0.5 μM of LRRK2 tracer were used for the permeabilized and live mode LRRK2 engagement assays separately. The fractional occupancy of the tracers is plotted against the tested compounds’ concentrations and fitted into “nonlinear regression, one site-log IC50” to obtain the IC50 values of each compound against both permeabilized and live cells, separately. Data points are presented as mean ± SEM from three independent experiments. (D) The IC50 ratios between permeabilized and live mode target engagements of each compound were used to compare their permeabilities.
For VHL and LRRK2 target engagement experiments in live and permeabilized cells, the HEK293 cells were transfected with the VHL-NanoLuc fusion vector (Promega, N275A) or LRRK2-NanoLuc fusion vector (Promega, NV3401) following Promega’s protocol and seeded into a white 384-well plate (Corning3570) at a density of 6000 cells/well. […] The filtered luminescence was measured within 10 min following the addition of the substrate on a GloMax Discover microplate reader (Promega) or a PHERAstar (BMG LABTECH) plate reader equipped with a 450 nm bandpass filter (donor) and a 600 nm long-pass filter (acceptor). […] The plates were then cooled down, and a NanoBRET NanoGlo Substrate and an Extracellular NanoLuc Inhibitor (Promega, N2160) were added before performing the same NanoBRET reading as the permeabilized mode on plate readers. […]

The mark [5] stands for this setting: ratio used to compare permeabilities.

Molecules are shown by their SMILES. pEC50, pIC50: −log10 of the molar value. Like-named read-outs stand apart in the source and are kept apart here. A value given as a limit tells only on which side of the number the result lay.

Take `CNc1nc(Nc2ccc(C(=O)N3CCN(CCOCCOCCSC(C)(C)[C@H](NC(=O)C4(F)CC4)C(=O)N4C[C@H](O)C[C@H]4C(=O)NCc4ccc(-c5scnc5C)cc4)CC3)cc2OC)ncc1Cl` [SD75]: in data set [1] (setting [5]), the “VHL IC50 Permeabilized/IC50 Live” value came out at 0.76. Besides, the Dmax at 1 µM in data set [2] (1 μM (1000 nM), read-out: Dmax (G2019S LRRK2), time-dependent degradation) stood at 81%. Besides, in data set [2] (24 h, read-out: Dmax,24h (G2019S LRRK2)), the Dmax turned out to be 58%. In addition, the “WT-pRab10 percent label at the end of the time curve” value (“WT-pRab10 percent label at the end” for short) in data set [3] (1 µM) was 41%. In data set [3] (Mus musculus, 24 h, WT MEFs, read-out: EC50 for the dephosphorylation of Rab10 (WT-pRab10)), the negative-log EC50 (pEC50) was 5.64. Further, the “LRRK2 IC50 Permeabilized/IC50 Live” value in data set [4] (setting [5]) came to 0.43.
Turning to `CNc1nc(Nc2ccc(C(=O)N3CCN(C[C@H]4CC[C@H](CSC(C)(C)[C@H](NC(=O)C5(F)CC5)C(=O)N5C[C@H](O)CC5C(=O)NCc5ccc(-c6scnc6C)cc5)CC4)CC3)cc2OC)ncc1Cl` (stereo partly drawn) [XL01126, (2S,4R)-1-((R)-3-((((1R,4R)-4-((4-(4-((5-Chloro-4-(methylamino)pyrimidin-2-yl)amino)-3-methoxybenzoyl)piperazin-1-yl)methyl)cyclohexyl)methyl)thio)-2-(1-fluorocyclopropane-1-carboxamido)-3-methylbutanoyl)-4-hydroxy-N-(4-(4-methylthiazol-5-yl)benzyl)pyrrolidine-2-carboxamide], the pIC50 is under 5.00 in data set [1] (permeabilized HEK293 cells) and 5.59 in data set [4]. In data set [2] (4 h), this compound came in with a DC50 of 14 nM. In addition, the “WT-pRab10 percent label at the end” value in data set [3] (0.3 µM) is recorded as 94%. Moreover, the pEC50 in data set [3] (Mus musculus, 4 h, WT MEFs, read-out: EC50 WT-pRab10) was 7.27.
Turning to `CNc1nc(Nc2ccc(C(=O)N3CCN(C[C@H]4CC[C@@H](CSC(C)(C)[C@H](NC(=O)C5(F)CC5)C(=O)N5C[C@H](O)CC5C(=O)NCc5ccc(-c6scnc6C)cc5)CC4)CC3)cc2OC)ncc1Cl` (some centres unmarked) [XL01134], half-maximal degradation in data set [2] (4 h) (DC50) was put at 7 nM. In data set [2] (4 h, read-out: Dmax,4h (G2019S LRRK2)), the Dmax is 81%. Also, in data set [3] (0.3 µM), the “WT-pRab10 percent label at the end” value is listed as 88%. Also, the pIC50 in data set [3] (Mus musculus, 4 h, WT MEFs, read-out: WT-pRab10 IC50) was 7.13; in data set [4], 5.70.
In the case of `CNc1nc(Nc2ccc(C(=O)N3CCN(C[C@H]4CC[C@H](CSC(C)(C)[C@H](NC(=O)C5(F)CC5)C(=O)N5C[C@@H](O)C[C@H]5C(=O)NCc5ccc(-c6scnc6C)cc5)CC4)CC3)cc2OC)ncc1Cl` [cis-XL01126, (2S,4S)-1-((R)-3-((((1R,4R)-4-((4-(4-((5-Chloro-4-(methylamino)pyrimidin-2-yl)amino)-3-methoxybenzoyl)piperazin-1-yl)methyl)cyclohexyl)methyl)thio)-2-(1-fluorocyclopropane-1-carboxamido)-3-methylbutanoyl)-4-hydroxy-N-(4-(4-methylthiazol-5-yl)benzyl)pyrrolidine-2-carboxamide], in data set [2] (4 h), the “degradation of G2019S LRRK2 (in words)” value was “no degradation”.
